Source: patent US20240343747A1, “Heteroaryl compounds as inhibitors of TYK2, composition and application thereof” (Accro Bioscience (HK) Limited, priority 2021, published 2024)

Legend:
[1] = test system: JAK1/JAK2 pathway; test: Selectivity: JAK1/JAK2 pathway, IFN-γ-induced p-STAT1 in HT-29 cells, western blot; assay type: cell-based; settings: IFN-γ 100 ng/mL
Protocol: HT-29 cells were digested by trypsin and suspended in DMEM medium and counted. The tested compounds were added into 6 well plates (400 000/per well) for 2 hours, then IFN-γ (100 ng/mL) was added to stimulate cells for 30 minutes. The cells were collected and lysed with protein lysate. The protein was quantitatively tested by BCA kit. Finally, p-STAT1/STAT1 and internal reference protein β-actin were detected by western blot.

[2] = test system: JAK1/JAK3 pathway; test: Selectivity: JAK1/JAK3 pathway, IL-2-induced p-STAT5 in human PBMC, western blot; assay type: cell-based; settings: IL-2 100 ng/mL
Protocol: Commercial human PBMC (peripheral blood mononuclear cells) were centrifuged (400 g) for 10 min, counted and seeded into 6-well plates (5 million/well). The compounds to be tested were added for 2 hours and then IL-2 (100 ng/mL) was added to stimulate cells for 15 minutes. Finally, p-STAT5/STAT5 and internal reference protein β-actin were detected by Western blot.

[3] = test system: TYK2/JAK1 pathway; test: Selectivity: TYK2/JAK1 pathway, IFN-α-induced p-STAT1 in human PBMC, western blot; assay type: cell-based
Protocol: Commercial human PBMC (peripheral blood mononuclear cells) were centrifuged (400 g) for 10 min, counted and planted on 6-well plates (5 million/well). Then, the compounds to be tested were added for 2 hours and IFN-α (100 ng/mL) was added to stimulate cells for 15 minutes. Protein lysate was used to lysate cells, and BCA kit was used for protein quantification. Finally, p-STAT1/STAT1, P-TYK2/TYK2 and internal reference protein B-Actin were detected by Western blot.

[4] = Metabolic stability test, human liver microsomes; assay type: in vitro ADME
Protocol: • 1. Buffer A: 1.0 L of 0.1 M monobasic Potassium Phosphate buffer containing 1.0 mM EDTA • Buffer B: 1.0 L of 0.1 M Dibasic Potassium Phosphate buffer containing 1.0 mM EDTA • Buffer C: 0.1 M Potassium Phosphate buffer, 1.0 mM EDTA, at about pH 7.4 by titrating 700 mL of Buffer B with Buffer A while monitoring with the pH meter. • 2. Reference compounds (Ketanserin) and test compounds spiking solution: • 500 µM spiking solution: add 10 μL of 10 mM DMSO stock solution into […] ACN. • 1.5 µM spiking solution in microsomes (0.75 mg/mL): add 1.5 μL of 500 µM spiking solution and 18.75 μL of 20 mg/mL liver microsomes into 479.75 μL of Buffer C on ice. • 3. Prepare NADPH stock solution (6 mM) by dissolving NADPH into buffer C. • 4. Dispense 30 μL of 1.5 µM spiking solution containing 0.75 mg/mL microsomes solution to the assay plates designated for different time points (0-, 5-, 15-, 30-, 45-min) on ice. • 5. For 0-min, add 135 μL of ACN containing IS to the wells of 0-min plate and then add 15 μL of NADPH stock solution (6 mM). • 6. Pre-incubate all other plates at 37° C. for 5 minutes. • 7. Add 15 μL of NADPH stock solution (6 mM) to the plates to start the reaction and timing. • 8. At 5-min, 15-min, 30-min, and 45-min, add 135 μL of ACN containing IS to the wells of corresponding plates, respectively, to stop the reaction. • 9. After quenching, shake the plates at the vibrator (IKA, MTS 2/4) for 10 min (600 rpm/min) and then centrifuge at 5594 g for 15 min (Thermo Multifuge×3R). • 10. Transfer 50 μL of the supernatant from each well into a 96-well sample plate containing 50 μL of ultra pure water (Millipore, ZMQS50F01) for LC/MS analysis.

[5] = Plasma protein binding test, monkey; assay type: in vitro ADME
Protocol: (§1) • 1. Test compound and control compound were dissolved in dimethyl sulfoxide (DMSO) to achieve 10 mM stock solutions. DMSO working solutions were prepared at 400 μM. To prepare the loading matrix, compound working solutions (5 μL) were added in a 1:200 ratio to blank matrix (995 μL), and mixed thoroughly. • 2. To prepare the time zero (TO) samples to be used for recovery determination, 50 μL aliquots of loading matrix were transferred in triplicate to the sample collection plate. The samples were immediately matched with opposite blank buffer to obtain a final volume of 100 μL of 1:1 matrix/dialysis buffer (v/v) in each well. 500 μL of stop solution were added to these TO samples. They were then stored at 2-8° C. pending further processes along with other post-dialysis samples. • 3. To load the dialysis device, an aliquot of 150 μL of the loading matrix was transferred to the donor side of each dialysis well in triplicate, and 150 μL of the dialysis buffer was loaded to the receiver side of the well. The dialysis plate was placed in a humidified incubator at 37° C. with 5% CO2 on a shaking platform that rotated slowly (about 100 rpm) for 4 hours • 4. At the end of the dialysis, aliquots of 50 μL of samples were taken from both the buffer side and the matrix side of the dialysis device. […]
(§2) The % Unbound and % Bound were calculated using the following equations: […]

[6] = Plasma protein binding test, rat; assay type: in vitro ADME
Protocol: as §1, §2

SMILES | effect on downstream STAT1 phosphorylation induced by IFN-γ [1] | effect on IL-2-induced downstream STAT5 phosphorylation [2] | inhibition of TYK2/JAK1 pathway compared with BMS986165 ([3]; IFN-α) | inhibition of downstream STAT1 phosphorylation induced by IFN-α ([3]; IFN-α 100 ng/mL, western blot) | stability in human liver microsomes (in words) ([4]; conclusion from Table 5) | CL HLM ([4]; human liver microsomes) [mL/min/kg] | half-life at 1 μM ([4]; pH 7.4, human liver microsomes, read-out: T1/2 HLM) [h] | fraction unbound at 4 h, 2 μM [5] | fraction unbound at 4 h, 2 μM [6]
CCC(=O)c1cnc(NC(=O)C2CC2)cc1Nc1cccc(-c2cc(P(=O)(C3CC3)C3CC3)n(C)n2)c1OC [Compound B37, N-(4-((3-(5-(dicyclopropylphosphoryl)-1-methyl-1H-pyrazol-3-yl)-2-methoxyphenyl)amino)-5-propionylpyridin-2-yl)cyclopropanecarboxamide] | no effect | no effect | better inhibitory activity than BMS986165 | effectively inhibit |  |  |  |  | 
CCC(=O)c1cnc(NC(=O)C2CC2)cc1Nc1cccc(-c2cc(P(C)(C)=O)n(C)n2)c1OC [Compound B2, N-(4-((3-(5-(dimethylphosphoryl)-1-methyl-1H-pyrazol-3-yl)-2-methoxyphenyl)amino)-5-propionylpyridin-2-yl)cyclopropanecarboxamide] |  |  |  |  | good stability | <8.6 | > 2.42 | 0.042 | 0.055
[2H]C([2H])([2H])NC(=O)c1nnc(NC(=O)C2CC2)cc1Nc1cccc(-c2cc(P(=O)(C3CC3)C3CC3)n(C)n2)c1OC [Compound B41, 6-(cyclopropanecarboxamido)-4-((3-(5-(dicyclopropylphosphoryl)-1-methyl-1H-pyrazol-3-yl)-2-methoxyphenyl)amino)-N-(methyl-d3)pyridazine-3-carboxamide] |  |  |  |  |  |  |  | 0.076 | 0.045
